Experimental findings from patent US7981903B2, “2-[2-{phenylamino}-1H-pyrrolo[2,3-D]pyrimidin-4-yl)amino] benzamide derivatives as IGF-1R inhibitors for the treatment of cancer” (GlaxoSmithKline LLC, priority 2007, dated 2011) are described below.

In assay [1] the test system is Colo205. Briefly: Inhibition of cell proliferation (CellTiter-Glo or InCell analyzer), Colo205. It is filed as cell-based. The note with it: Homo sapiens, COLO 205, 72 h / 3 days, values given as IC50 category. The gist of the method: In one
For orientation: ATP-based viability assays read luminescence as a measure of living cells.

In assay [2] the target is T1, NIH-3T3 cells overexpressing human IR (Homo sapiens, UniProt P06213).
T1 construct: expressed in transfected cells; host or cells: NIH-3T3 (mouse fibroblasts)
In words: IR cellular autophosphorylation (DELFIA). It is filed as cell-based. The following applies: 2 h compound, insulin 3 ug/ml for 15 minutes, IC50 category. The gist of the method:
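Receptor autophosphorylation measured by DELFIA, capturing IGF-1R or IRβ and detecting with europium anti-pTyr, reported as percent of IGF-1- or insulin-stimulated signal. Compounds (30 uM to 1.5 nM) added 2 h before ligand, then 15 min stimulation (IGF-1 30 ng/ml or insulin 3 ug/ml).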

Assay [3] has as its target ALK (Homo sapiens, UniProt Q9UM73). In words: ALK enzyme assay (HTRF). The assay is classed as biochemical. The note with it: 0.25 nM ALK, 15.0 μM ATP, values given as pIC50 category. The gist of the method: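 Isolated ALK phosphorylates a biotinylated tyrosine peptide, 120 min at 20° C; anti-phosphotyrosine Eu-cryptate/streptavidin-XL665 HTRF read after 60 min with EDTA-containing detection mix.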
(TR-FRET usually uses a lanthanide donor and a delayed reading to cut background.)

Sequence of ALK (Q9UM73 19-1620): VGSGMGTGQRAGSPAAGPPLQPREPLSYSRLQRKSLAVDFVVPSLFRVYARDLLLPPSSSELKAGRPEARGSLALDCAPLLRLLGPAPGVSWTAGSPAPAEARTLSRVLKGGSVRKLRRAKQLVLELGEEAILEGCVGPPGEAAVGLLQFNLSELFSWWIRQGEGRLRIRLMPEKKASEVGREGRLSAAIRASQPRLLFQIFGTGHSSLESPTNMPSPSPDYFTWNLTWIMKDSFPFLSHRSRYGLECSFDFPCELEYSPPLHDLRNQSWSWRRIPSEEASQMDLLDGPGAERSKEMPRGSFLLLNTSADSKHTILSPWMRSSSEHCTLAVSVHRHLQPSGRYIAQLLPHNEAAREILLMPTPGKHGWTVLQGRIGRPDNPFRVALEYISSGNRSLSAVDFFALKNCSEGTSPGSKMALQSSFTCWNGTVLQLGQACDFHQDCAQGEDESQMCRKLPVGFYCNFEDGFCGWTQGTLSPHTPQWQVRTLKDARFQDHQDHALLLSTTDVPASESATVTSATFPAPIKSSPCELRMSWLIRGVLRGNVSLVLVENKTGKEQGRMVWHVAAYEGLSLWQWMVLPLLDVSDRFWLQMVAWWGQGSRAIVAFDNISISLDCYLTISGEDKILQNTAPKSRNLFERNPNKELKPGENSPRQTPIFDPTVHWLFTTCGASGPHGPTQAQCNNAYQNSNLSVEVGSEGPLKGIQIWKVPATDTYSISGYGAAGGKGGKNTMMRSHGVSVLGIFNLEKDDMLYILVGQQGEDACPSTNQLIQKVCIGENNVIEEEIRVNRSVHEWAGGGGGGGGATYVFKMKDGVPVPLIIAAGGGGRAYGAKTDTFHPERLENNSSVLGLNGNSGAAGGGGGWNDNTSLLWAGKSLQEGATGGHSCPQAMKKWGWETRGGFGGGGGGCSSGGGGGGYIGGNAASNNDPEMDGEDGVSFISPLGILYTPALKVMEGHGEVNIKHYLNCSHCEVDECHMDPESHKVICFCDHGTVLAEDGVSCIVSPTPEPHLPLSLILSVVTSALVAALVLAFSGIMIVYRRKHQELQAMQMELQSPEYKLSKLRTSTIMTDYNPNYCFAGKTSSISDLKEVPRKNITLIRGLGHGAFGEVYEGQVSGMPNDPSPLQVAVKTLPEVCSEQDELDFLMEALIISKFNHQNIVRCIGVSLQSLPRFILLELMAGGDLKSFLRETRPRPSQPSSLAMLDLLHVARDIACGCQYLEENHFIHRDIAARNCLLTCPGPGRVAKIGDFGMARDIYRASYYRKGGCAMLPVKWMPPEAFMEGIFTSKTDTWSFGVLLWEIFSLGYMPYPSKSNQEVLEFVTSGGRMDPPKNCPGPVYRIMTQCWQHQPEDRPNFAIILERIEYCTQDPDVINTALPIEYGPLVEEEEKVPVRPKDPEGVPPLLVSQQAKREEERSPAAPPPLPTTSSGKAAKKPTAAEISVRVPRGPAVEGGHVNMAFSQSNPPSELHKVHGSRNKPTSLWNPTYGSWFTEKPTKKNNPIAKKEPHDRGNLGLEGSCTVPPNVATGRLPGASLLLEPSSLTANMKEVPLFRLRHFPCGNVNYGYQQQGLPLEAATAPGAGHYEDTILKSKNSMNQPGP
T1 sequence (P06213 28-1382): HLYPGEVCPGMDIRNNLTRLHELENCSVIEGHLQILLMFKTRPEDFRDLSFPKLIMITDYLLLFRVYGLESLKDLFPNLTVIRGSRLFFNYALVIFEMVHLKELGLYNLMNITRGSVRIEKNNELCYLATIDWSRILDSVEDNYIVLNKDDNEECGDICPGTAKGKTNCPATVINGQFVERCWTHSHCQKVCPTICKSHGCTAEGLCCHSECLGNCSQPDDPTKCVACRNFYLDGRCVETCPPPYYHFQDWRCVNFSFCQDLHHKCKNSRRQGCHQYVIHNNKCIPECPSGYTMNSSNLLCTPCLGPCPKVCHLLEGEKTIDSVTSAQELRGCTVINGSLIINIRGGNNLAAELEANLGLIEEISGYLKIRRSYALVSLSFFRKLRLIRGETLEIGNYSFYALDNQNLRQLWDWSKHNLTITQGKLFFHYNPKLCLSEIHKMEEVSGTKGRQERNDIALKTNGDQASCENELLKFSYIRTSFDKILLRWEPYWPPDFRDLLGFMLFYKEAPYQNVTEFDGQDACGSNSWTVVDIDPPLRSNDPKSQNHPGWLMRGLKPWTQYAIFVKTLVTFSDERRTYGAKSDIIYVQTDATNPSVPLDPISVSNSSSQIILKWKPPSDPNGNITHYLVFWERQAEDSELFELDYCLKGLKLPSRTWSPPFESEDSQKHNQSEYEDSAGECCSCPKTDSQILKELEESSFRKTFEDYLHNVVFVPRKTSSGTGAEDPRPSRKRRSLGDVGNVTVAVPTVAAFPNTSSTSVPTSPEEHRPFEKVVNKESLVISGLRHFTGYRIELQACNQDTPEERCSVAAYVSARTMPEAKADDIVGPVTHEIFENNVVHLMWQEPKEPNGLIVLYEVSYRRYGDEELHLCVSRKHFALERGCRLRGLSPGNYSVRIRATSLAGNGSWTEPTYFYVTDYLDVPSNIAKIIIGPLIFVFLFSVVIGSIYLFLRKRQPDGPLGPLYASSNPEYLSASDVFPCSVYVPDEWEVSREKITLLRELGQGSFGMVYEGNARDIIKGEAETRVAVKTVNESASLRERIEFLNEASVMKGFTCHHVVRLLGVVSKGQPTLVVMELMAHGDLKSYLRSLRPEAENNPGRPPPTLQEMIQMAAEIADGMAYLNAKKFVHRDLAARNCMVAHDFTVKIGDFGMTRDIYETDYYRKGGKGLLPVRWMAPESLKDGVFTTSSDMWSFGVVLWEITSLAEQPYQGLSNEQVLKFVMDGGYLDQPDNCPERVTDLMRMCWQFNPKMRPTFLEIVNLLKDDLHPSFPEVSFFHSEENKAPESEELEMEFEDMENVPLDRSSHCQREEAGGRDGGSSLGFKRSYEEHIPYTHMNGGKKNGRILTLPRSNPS

What is called IC50 is the midpoint of a concentration-inhibition curve. For `COc1cc2c(cc1Nc1nc(Nc3cccc(F)c3C(N)=O)c3cc[nH]c3n1)CN(C)CC2` [Example 121, 2-fluoro-6-[(2-{[2-methyl-6-(methyloxy)-1,2,3,4-tetrahydro-7-isoquinolinyl]amino}-1H-pyrrolo[2,3-d]pyrimidin-4-yl)amino]benzamide], the results for the IC50 in assay [1], in assay [2] and in assay [3] were 250 to 1000 nM, 100 to 500 nM and 1.26 to 3.98 nM, respectively.
The like results for `CCCN(CCC)[C@@H](C)C(=O)N1CCc2cc(OC)c(Nc3nc(Nc4cccc(F)c4C(N)=O)c4cc[nH]c4n3)cc21` [Example 192, 2-[(2-{[1-(N,N-dipropyl-L-alanyl)-5-(methyloxy)-2,3-dihydro-1H-indol-6-yl]amino}-1H-pyrrolo[2,3-d]pyrimidin-4-yl)amino]-6-fluorobenzamide] were, in that order, 250 to 1000 nM, less than 100 nM and 5.01 to 200 nM.
Turning to `CCNC(=O)c1c(F)cc(F)cc1Nc1nc(Nc2cc3c(cc2OC)CCCN3C(=O)CN(C)C)nc2[nH]ccc12` [Example 180, 2-[(2-{[1-(N,N-dimethylglycyl)-6-(methyloxy)-1,2,3,4-tetrahydro-7-quinolinyl]amino}-1H-pyrrolo[2,3-d]pyrimidin-4-yl)amino]-N-ethyl-4,6-difluorobenzamide], the results for the IC50 in assay [1], in assay [2] and in assay [3] were 250 to 1000 nM, less than 100 nM and 0.251 to 1 nM, respectively.
The like results for `CCC(C)N1CCc2cc(OC)c(Nc3nc(Nc4cccc(F)c4C(=O)NC)c4cc[nH]c4n3)cc2C1` (stereo not drawn) [Example 238, 2-fluoro-N-methyl-6-[(2-{[6-(methyloxy)-2-(1-methylpropyl)-1,2,3,4-tetrahydro-7-isoquinolinyl]amino}-1H-pyrrolo[2,3-d]pyrimidin-4-yl)amino]benzamide] were, in that order, greater than 1000 nM, 100 to 500 nM and 1.26 to 3.98 nM.
As to `CCCN(C)CC(=O)N1CCc2cc(OC)c(Nc3nc(Nc4cccc(F)c4C(N)=O)c4cc[nH]c4n3)cc21` [Example 168, 2-fluoro-6-[(2-{[5-(methyloxy)-1-(N-methyl-N-propylglycyl)-2,3-dihydro-1H-indol-6-yl]amino}-1H-pyrrolo[2,3-d]pyrimidin-4-yl)amino]benzamide], the IC50 was less than 250 nM in assay [1], less than 100 nM in assay [2] and 1.26 to 3.98 nM in assay [3].
Consider `COc1cc2c(cc1Nc1nc(Nc3ccc(F)c(F)c3C(=O)NC(C)C)c3cc[nH]c3n1)N(C(=O)CN(C)C)CC2` [Example 161, 6-[(2-{[1-(N,N-dimethylglycyl)-5-(methyloxy)-2,3-dihydro-1H-indol-6-yl]amino}-1H-pyrrolo[2,3-d]pyrimidin-4-yl)amino]-2,3-difluoro-N-(1-methylethyl)benzamide], for which the IC50 in assay [1] was greater than 1000 nM; in assay [2], greater than 500 nM; in assay [3], 1.26 to 3.98 nM.
For `CNC(=O)c1c(F)cccc1Nc1nc(Nc2cc3c(cc2OC)CCN3C(=O)CN(C)C)nc2[nH]cc(C)c12` [Example 258, 2-[(2-{[1-(N,N-dimethylglycyl)-5-(methyloxy)-2,3-dihydro-1H-indol-6-yl]amino}-5-methyl-1H-pyrrolo[2,3-d]pyrimidin-4-yl)amino]-6-fluoro-N-methylbenzamide], the figures for the IC50 in assay [1], in assay [2] and in assay [3] were 250 to 1000 nM, 100 to 500 nM and 0.251 to 1 nM, respectively.
The corresponding values for `COc1cc2c(cc1Nc1nc(Nc3cc(Cl)cc(F)c3C(N)=O)c3cc[nH]c3n1)N(C(=O)CN1CCCC1)CC2` [Example 175, 4-chloro-2-fluoro-6-[(2-{[5-(methyloxy)-1-(1-pyrrolidinylacetyl)-2,3-dihydro-1H-indol-6-yl]amino}-1H-pyrrolo[2,3-d]pyrimidin-4-yl)amino]benzamide] are 250 to 1000 nM, less than 100 nM and 1.26 to 3.98 nM.
`COc1cc2c(cc1Nc1nc(Nc3cccc(F)c3C(N)=O)c3cc[nH]c3n1)CN(C(=O)CCN(C)C)CC2` [Example 230, 2-[(2-{[2-(N,N-dimethyl-β-alanyl)-6-(methyloxy)-1,2,3,4-tetrahydro-7-isoquinolinyl]amino}-1H-pyrrolo[2,3-d]pyrimidin-4-yl)amino]-6-fluorobenzamide]: the IC50 is greater than 1000 nM in assay [1], 100 to 500 nM in assay [2] and 5.01 to 200 nM in assay [3].
The like results for `COc1cc(N2CCCN(C(C)C)CC2)ccc1Nc1nc(Nc2cccc(F)c2C(N)=O)c2cc[nH]c2n1` [Example 208, 2-fluoro-6-[(2-{[4-[4-(1-methylethyl)hexahydro-1H-1,4-diazepin-1-yl]-2-(methyloxy)phenyl]amino}-1H-pyrrolo[2,3-d]pyrimidin-4-yl)amino]benzamide] were, in that order, 250 to 1000 nM, 100 to 500 nM and 0.251 to 1 nM.
The corresponding values for `COc1cc2c(cc1Nc1nc(Nc3cc(F)cc(F)c3C(N)=O)c3cc[nH]c3n1)N(C(=O)CN(C)C)CC2` [Example 189, 2-[(2-{[1-(N,N-dimethylglycyl)-5-(methyloxy)-2,3-dihydro-1H-indol-6-yl]amino}-1H-pyrrolo[2,3-d]pyrimidin-4-yl)amino]-4,6-difluorobenzamide] are less than 250 nM, less than 100 nM and 1.26 to 3.98 nM.
The like results for `CNC(=O)c1c(F)cc(F)cc1Nc1nc(Nc2cc3c(cc2OC)CCCN3C(=O)CN2CCCC2)nc2[nH]ccc12` [Example 221, 2,4-difluoro-N-methyl-6-[(2-{[6-(methyloxy)-1-(1-pyrrolidinylacetyl)-1,2,3,4-tetrahydro-7-quinolinyl]amino}-1H-pyrrolo[2,3-d]pyrimidin-4-yl)amino]benzamide] were, in that order, 250 to 1000 nM, less than 100 nM and 1.26 to 3.98 nM.
Turning to `CNC(=O)c1c(F)cc(F)cc1Nc1nc(Nc2cc3c(cc2OC)CCCN3C(=O)CN(C)C)nc2[nH]ccc12` [Example 179, 2-[(2-{[1-(N,N-dimethylglycyl)-6-(methyloxy)-1,2,3,4-tetrahydro-7-quinolinyl]amino}-1H-pyrrolo[2,3-d]pyrimidin-4-yl)amino]-4,6-difluoro-N-methylbenzamide], the figures for the IC50 in assay [1], in assay [2] and in assay [3] were less than 250 nM, less than 100 nM and 0.251 to 1 nM, respectively.
The like results for `COc1cc2c(cc1Nc1nc(Nc3cccc(F)c3C(N)=O)c3cc[nH]c3n1)NCC2` [Example 140, 2-fluoro-6-[(2-{[5-(methyloxy)-2,3-dihydro-1H-indol-6-yl]amino}-1H-pyrrolo[2,3-d]pyrimidin-4-yl)amino]benzamide] were, in that order, 250 to 1000 nM, greater than 500 nM and 5.01 to 200 nM.
For the compound `COc1cc(N2CCOC[C@@H]2C)ccc1Nc1nc(Nc2cc(F)ccc2C(N)=O)c2cc[nH]c2n1` [Example 84, 4-fluoro-2-[(2-{[4-[(3S)-3-methyl-4-morpholinyl]-2-(methyloxy)phenyl]amino}-1H-pyrrolo[2,3-d]pyrimidin-4-yl)amino]benzamide], the IC50 in assay [1] is less than 250 nM; in assay [2], less than 100 nM; in assay [3], 1.26 to 3.98 nM.
The corresponding values for `CNC(=O)c1c(F)cccc1Nc1nc(Nc2cc3c(cc2OC)CCN3C(=O)COC)nc2[nH]ccc12` [Example 150, 2-fluoro-N-methyl-6-{[2-({5-(methyloxy)-1-[(methyloxy)acetyl]-2,3-dihydro-1H-indol-6-yl}amino)-1H-pyrrolo[2,3-d]pyrimidin-4-yl]amino}benzamide] are greater than 1000 nM, greater than 500 nM and 5.01 to 200 nM.
